This note sets out measurements from patent US9120777B2, “Heterocyclic compound” (Takeda Pharmaceutical Company Limited, priority 2013, dated 2015).

One assay concerns the target T1, human SSTR5 (Homo sapiens, UniProt P35346).
T1 construct: expressed in transfected cells
Nature of the assay: Evaluation of human SSTR5 antagonist activity using intracellular cAMP concentration as index. The class given is cell-based. As to conditions: 1 uM test compound; CHO (dhfr-) cells stably expressing human SSTR5; 0.1 nM somatostatin 28 and 0.3 uM forskolin; HTRF cAMP; read-out: Inhibition rate against SSTR5 at 1 uM. The method, then:
Evaluation of Human SSTR5 Antagonist Activity Using Intracellular cAMP Concentration as Index
The intracellular cAMP concentration was measured using HTRF cAMP dynamic 2 kit (Cisbio Bioassays). Each test compound diluted with an assay buffer (HBSS (Invitrogen Corp.) containing 5 mM HEPES (pH 7.5) (Invitrogen Corp.), 0.1% fatty-acid free BSA (Sigma-Aldrich Corp.), and 500 u (“u” represents “micro”)M IBMX (Wako Pure Chemical Industries, Ltd.)) was added at a concentration of 2 uL/well to a 384-well white plate (Greiner Bio-One Co., Ltd.) to give the final concentration of 1 uM. A frozen stock of CHO (dhfr−) cells stably expressing the human SSTR5 gene (Accession No. NM_001053) was thawed in a thermostat bath of 37 C and suspended in a subculture medium (MEM alpha (Wako Pure Chemical Industries, Ltd.), 10% dialyzed serum (Gemini Bio-Products), and 50 ug/mL gentamicin (Invitrogen Corp.). After centrifugation of the cell suspension, the cells were resuspended in an assay buffer and added at a concentration of 2 uL/well (about 4,000 cells/well) to the plate. The compound and the cells were incubated for 15 minutes, and then, an assay buffer containing 0.1 nM (final concentration) somatostatin 28 (Toray Research Center) and 0.3 uM (final concentration) forskolin (Wako Pure Chemical Industries, Ltd.) was added thereto at a concentration of 2 uL/well, followed by incubation at room temperature for 30 minutes. cAMP-d2 and anti-cAMP-cryptate were each added thereto at a concentration of 3 uL/well. The plate was left standing at room temperature for 60 minutes. Then, the fluorescence resonance energy transfer (FRET) intensity was measured using Multi-label reader Envision (PerkinElmer). The FRET intensity of the wells supplemented with the test compound group was converted to a cAMP concentration using a calibration curve prepared from the FRET intensity of a well group containing an assay buffer supplemented with an arbitrary concentration of cAMP. The inhibitory activity of each compound was calculated according to the following expression: Inhibitory activity(%)=(C−B)/(A−B)×100 A: cAMP concentration calculated from the wells supplemented with 0.3 uM forskolin B: cAMP concentration calculated from the wells supplemented with 0.3 uM forskolin and 0.1 nM somatostatin 28 C: cAMP concentration calculated from the wells supplemented with 0.3 uM forskolin, 0.1 nM somatostatin 28, and 1 uM test compound
A general note: TR-FRET usually uses a lanthanide donor and a delayed reading to cut background.

Assay [1] has as its system Female KK-Ay/Ta mice, a type 2 diabetes model. As to the kind of experiment: Antidiabetic effect in mice (glycated hemoglobin after 2 weeks of treatment). In kind it is in vivo. The conditions noted are these: 1 mg/kg orally once a day for 2 weeks, n=8. The source says: Antidiabetic Effect in Mice
Female KK-Ay/Ta mice (Clea Japan Inc.), a type 2 diabetes model, were used in this study. At the age of 7-week old, blood sample were collected from tail vein at 8:00 am, and animals were divided into separate groups (n=8) based on glycated hemoglobin (GHb), plasma glucose, insulin, triglyceride levels and body weight. Vehicle (0.5% (w/v) methylcellulose) or compounds (suspended in vehicle) were orally administered once a day for 2 weeks. After 2 weeks of treatment, GHb was determined by auto-analyzer HLC-723G8 (TOSOH, Japan).

As usually defined, the inhibition is the relative decrease from the control value, in per cent.

T1 sequence (P35346 whole entry): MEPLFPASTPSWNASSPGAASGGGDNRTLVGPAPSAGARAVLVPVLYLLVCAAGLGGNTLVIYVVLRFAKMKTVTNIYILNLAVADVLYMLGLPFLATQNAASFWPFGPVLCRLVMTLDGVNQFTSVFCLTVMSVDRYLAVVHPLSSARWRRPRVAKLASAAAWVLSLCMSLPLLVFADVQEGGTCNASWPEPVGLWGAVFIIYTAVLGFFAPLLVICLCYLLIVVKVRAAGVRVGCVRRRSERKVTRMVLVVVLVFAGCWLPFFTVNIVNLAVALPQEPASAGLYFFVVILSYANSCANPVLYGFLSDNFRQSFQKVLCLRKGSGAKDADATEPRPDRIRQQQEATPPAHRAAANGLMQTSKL

As to `CCOc1cc(C2CCC2)c(C2CC2)cc1CN1CCC(n2ccc(C(=O)O)cc2=O)CC1` [Example 1, 1-(1-(4-cyclobutyl-5-cyclopropyl-2-ethoxybenzyl)piperidin-4-yl)-2-oxo-1,2-dihydropyridine-4-carboxylic acid], the inhibition at 1 µM on human SSTR5 is 84%.

As to `CC(C)Oc1nc(-c2ccc(F)cc2)c(C2CC2)cc1CN1CCC(n2ccc(C(=O)O)cc2=O)CC1` [Example 2, 1-(1-((5-cyclopropyl-6-(4-fluorophenyl)-2-isopropoxypyridin-3-yl)methyl)piperidin-4-yl)-2-oxo-1,2-dihydropyridine-4-carboxylic acid], the inhibition at 1 µM at human SSTR5 was determined as 134%.

`CC(C)Oc1cc(-c2ccc(F)cc2)c(C2CC2)cc1CN1CCC(n2ccc(C(=O)O)cc2=O)CC1` [Example 3, 1-(1-((2-cyclopropyl-4′-fluoro-5-isopropoxybiphenyl-4-yl)methyl)piperidin-4-yl)-2-oxo-1,2-dihydropyridine-4-carboxylic acid]: the inhibition at 1 µM at human SSTR5 was 116%.

On to `CC(C)Oc1cc(C2CC2)c(C2CC2)cc1CN1CCC(n2ccc(C(=O)O)cc2=O)CC1` [Example 4, 1-(1-(4,5-dicyclopropyl-2-isopropoxybenzyl)piperidin-4-yl)-2-oxo-1,2-dihydropyridine-4-carboxylic acid], for which the inhibition at 1 µM at human SSTR5 worked out at 120%.

In the case of `CC(C)Oc1c(CN2CCC(n3ccc(C(=O)O)cc3=O)CC2)cc(C2CC2)c(-c2ccc(F)cc2F)c1Cl` [Example 5, 1-(1-((2-chloro-6-cyclopropyl-2′,4′-difluoro-3-isopropoxybiphenyl-4-yl)methyl)piperidin-4-yl)-2-oxo-1,2-dihydropyridine-4-carboxylic acid], the inhibition at 1 µM at human SSTR5 turned out to be 88%.

Turning to `CCc1c(C(=O)O)ccn(C2CCN(Cc3cc(C4CC4)c(-c4ccc(F)cc4F)cc3OC(C)C)CC2)c1=O` [Example 6, 1-(1-((2-cyclopropyl-2′,4′-difluoro-5-isopropoxybiphenyl-4-yl)methyl)piperidin-4-yl)-3-ethyl-2-oxo-1,2-dihydropyridine-4-carboxylic acid], the inhibition at 1 µM on human SSTR5 was 94%.

On to `CCc1c(C(=O)O)ccn(C2CCN(Cc3cc(C4CC4)c(-c4ccc(F)cc4F)c(F)c3OC(C)C)CC2)c1=O` [Example 7, 1-(1-((6-cyclopropyl-2,2′,4′-trifluoro-3-isopropoxybiphenyl-4-yl)methyl)piperidin-4-yl)-3-ethyl-2-oxo-1,2-dihydropyridine-4-carboxylic acid], for which the inhibition at 1 µM at human SSTR5 turned out to be 124%.

For `CCc1c(C(=O)O)ccn(C2CCN(Cc3cc(C4CC4)c(-c4ccc(F)cc4)c(F)c3OC(C)C)CC2)c1=O` [Example 43, 1-(1-((6-cyclopropyl-2,4′-difluoro-3-isopropoxybiphenyl-4-yl)methyl)piperidin-4-yl)-3-ethyl-2-oxo-1,2-dihydropyridine-4-carboxylic acid], the inhibition at 1 µM on human SSTR5 was found to be 133%.

Regarding `CCOc1c(CN2CCC(n3ccc(C(=O)O)c(CC)c3=O)CC2)cc(C2CC2)c(-c2ccc(F)cc2F)c1F` [Example 45, 1-(1-((6-cyclopropyl-3-ethoxy-2,2′,4′-trifluorobiphenyl-4-yl)methyl)piperidin-4-yl)-3-ethyl-2-oxo-1,2-dihydropyridine-4-carboxylic acid], the inhibition at 1 µM on human SSTR5 stood at 98%.

Turning to `CCc1c(C(=O)O)ccn(C2CCN(Cc3cc(C4CC4)c(C4CC4)c(F)c3OC(C)C)CC2)c1=O` [Example 47, 1-(1-(4,5-dicyclopropyl-3-fluoro-2-isopropoxybenzyl)piperidin-4-yl)-3-ethyl-2-oxo-1,2-dihydropyridine-4-carboxylic acid], the inhibition at 1 µM at human SSTR5 turned out to be 111%.

In the case of `Cc1c(C(=O)O)ccn(C2CCN(Cc3cc(C4CC4)c(-c4ccc(F)cc4)c(F)c3OC(C)C)CC2)c1=O` [Example 49, 1-(1-((6-Cyclopropyl-2,4′-difluoro-3-isopropoxybiphenyl-4-yl)methyl)piperidin-4-yl)-3-methyl-2-oxo-1,2-dihydropyridine-4-carboxylic acid], the “average of delta GHb (%)” value in assay [1] was −0.51%.

`CCc1c(C(=O)O)ccn(C2CCN(Cc3cc(C4CC4)c(-c4ccc(F)cc4)cc3OC(C)C)CC2)c1=O` [Example 51, 1-(1-((2-cyclopropyl-4′-fluoro-5-isopropoxybiphenyl-4-yl)methyl)piperidin-4-yl)-3-ethyl-2-oxo-1,2-dihydropyridine-4-carboxylic acid]: the inhibition at 1 µM at human SSTR5 amounted to 89%.
